Drawing on paper PMC6268079, “Synthesis and Biological Evaluation of 2-(3-Fluoro-4-nitro phenoxy)-N-phenylacetamide Derivatives as Novel Potential Affordable Antitubercular Agents” (Molecules, 2012), this text covers MIC for four compounds.

Each structure is given as a SMILES string. ≈ marks a conversion by molar mass, not a printed value.

The subject of assay [1] is Isoniazide-resistant TB 242. As to the kind of experiment: microbe, parasite or virus in culture. The class given is cell-based. To be noted: Mycobacterium tuberculosis.
For assay [2], the system named is Rifampicin-resistant TB 261. Put plainly: microbe, parasite or virus in culture. In kind it is cell-based. Conditions: Mycobacterium tuberculosis.

On to `NNC(=O)c1ccncc1` [Isoniazide], for which the MIC is 0.5 µg/mL (≈ 3.65 µM) in assay [1] and 0.125 µg/mL (≈ 0.911 µM) in assay [2].
The like results for `O=C(COc1ccc([N+](=O)[O-])c(F)c1)Nc1ccccc1[N+](=O)[O-]` [Compound 3m, 2-(3-Fluoro-4-nitrophenoxy)-N-(2-nitrophenyl)acetamide] were, in that order, 32 µg/mL (≈ 95.5 µM) and 4 µg/mL (≈ 11.9 µM).
The like results for `CO[C@H]1/C=C/O[C@@]2(C)Oc3c(C)c(O)c4c(O)c(c(/C=N/N5CCN(C)CC5)c(O)c4c3C2=O)NC(=O)/C(C)=C\C=C\[C@H](C)[C@H](O)[C@@H](C)[C@@H](O)[C@@H](C)[C@H](OC(C)=O)[C@@H]1C` [Rifampicin] were, in that order, no more than 0.25 µg/mL and greater than 32 µg/mL.
The like results for `COC(=O)COc1ccc(NC(=O)COc2ccc(C)cc2C)cc1` [I, methyl 2-(4-(2-(2,4-dimethylphenoxy)acetamido)phenoxy)acetate] were, in that order, 16 µg/mL (≈ 46.6 µM) and 4 µg/mL (≈ 11.6 µM).
